Source: US11419878B2, “Medicine obtained by combining FXR agonist and ARB” (Intercept Pharmaceuticals, Inc., priority 2016, dated 2022)

Key:
[1] = tested on: C57Bl/6J mice fed a CDAHFD; assay: Murine NASH model (CDAHFD-fed mice), serum ALT activity; type: in vivo, mouse; conditions: obeticholic acid 10 mg/kg/day and/or losartan 30 mg/kg/day oral, 3 weeks from 6 weeks of diet
Source text: According to the NASH/NAFLD Practice Guideline of 2015 (Japan Society of Hepatology, NASH/NAFLD Practice Guideline 2015. Tokyo: Bunkodo; 2015.), the important factors in NASH diagnostic screening are an abdominal ultrasound diagnosis of fatty liver and abnormal ALT (alanine aminotransferase) values. The diagnosis of NASH is confirmed by liver biopsy, with control of obesity/hypertension/lipid abnormalities being one of the basic criteria, and continuing high values for transaminases (aminotransferases) are also significant. […] Aliment Pharmacol Ther. 2013 Jul. 38 (2): 134-43). Based on the above findings, as ALT is considered an important prognostic factor in the progression of NASH, treatment to improve ALT levels is expected to alleviate the pathology of NASH. For this reason, evaluation was conducted using the animal model of reduction of ALT below, and the effects of monotherapy and combined administration of an FXR agonist (obeticholic acid) and an ARB (losartan) were studied.
The same method was used as in working example 7.
Male C57Bl/6J mice (n=50) […]
In order to evaluate serum alanine aminotransferase (ALT) activity, blood samples were taken from mice that had completed the above-mentioned testing, and the serum was separated. Using a pharmaceutical product for in vitro diagnosis, ALT activity in the serum samples was enzymatically measured.

[2] = tested on: C57Bl/6J mice fed a choline-deficient, amino acid-defined, high-fat diet (CDAHFD); assay: Murine NASH model (CDAHFD-fed mice), H&E histology: liver cell swelling, fatty degeneration, NAS; type: in vivo, mouse; conditions: obeticholic acid 30 mg/kg/day and/or losartan 30 mg/kg/day oral, 3 weeks from 2.5 weeks of diet
Source text: The accepted pathological diagnostic criterion for NASH is “observation of liver cell ballooning accompanied by inflammation in addition to large-droplet hepatic steatosis.” Matteoni et al. conducted a long-term follow-up study of patients with NAFLD, classifying the disease based on pathology findings into 4 types (type 1: fatty liver alone, type 2: fat accumulation plus inflammatory cell infiltration, type 3: fat accumulation plus ballooning hepatocyte degeneration, type 4: fat accumulation/ballooning hepatocyte degeneration plus Mallory-Denk bodies or fibrosis). […] In order to reduce differences among individual observers and institutions, the Nonalcoholic Steatohepatitis Clinical Research Network has proposed a pathodiagnostic scoring system in which the extent of fatty degeneration, inflammation, and hepatocyte ballooning is scored (NAS: NAFLD Activity Score) (Matteoni C A, Younossi Z M, Gramlich T, Boparai N, Liu Y C, McCullough A J: Nonalcoholic fatty liver disease: A spectrum of clinical and pathological severity. Gastroenterology, 116; 1413-1419, 1999). The pathodiagnostic standards making up the NASH score were evaluated using the following animal model, and the individual and combined effects of an FXR agonist (obeticholic acid) and an ARB (losartan) were studied. […]

Structure (SMILES) | improvement in serum ALT activity versus the positive control group [1] | liver cell swelling (positive area rate, improvement) [2]
CCCCc1nc(Cl)c(CO)n1Cc1ccc(-c2ccccc2-c2nn[nH]n2)cc1 [losartan] | only an improving trend | no improving tendency whatsoever
CC[C@H]1[C@@H](O)[C@@H]2[C@H](CC[C@]3(C)[C@@H]([C@H](C)CCC(=O)O)CC[C@@H]23)[C@@]2(C)CC[C@@H](O)C[C@@H]12 [obeticholic acid, 3α,7α-dihydroxy-6α-ethyl-5β-cholan-24-oic acid] | only an improving trend | tended to be inhibited
